In PubChem BioAssay (NCI) one finds TGI and GI50 data, which are given here for 9 compounds.

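Exposure lasted 48 hours, with cells grown in 96-well plates and compounds tested at five concentrations. At the GI50, growth is halved. TGI is the concentration that stops growth completely.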

Some test systems named below: ACHN renal; HCT-116 colon; MDA-MB-435; NCI-H522 lung; OVCAR-5 ovarian; SF-539 CNS; SNB-19 CNS; SR leukemia; UACC-257 melanoma; UACC-62 melanoma.
Common to all, as to assay: NCI-60 cell line screen, 48 h

For `COc1ccc(C(O)CNC(=O)c2ccccc2)cc1` (centres undefined), the TGI with ACHN renal, in the assay with HCT-116 colon, in the assay with MDA-MB-435, in the assay with NCI-H522 lung, with OVCAR-5 ovarian and in the assay on SF-539 CNS was greater than 100 µM throughout. Moreover, the TGI in the assay with SNB-19 CNS, in the assay on SR leukemia, in the assay with UACC-257 melanoma and with UACC-62 melanoma was greater than 100 µM throughout.

Consider `CC(ONC(=O)c1cc(C(F)(F)F)cc(C(F)(F)F)c1)C(=O)Nc1ccc(Cl)cc1` (centres undefined), for which the GI50 is 4.55 µM in the assay with ACHN renal; 4.97 µM with HCT-116 colon; 4.39 µM with MDA-MB-435; 4.14 µM in the assay on NCI-H522 lung; 5.53 µM in the assay with OVCAR-5 ovarian; 4.82 µM in the assay on SF-539 CNS. The GI50 in the assay on SNB-19 CNS was 5.64 µM; in the assay with UACC-257 melanoma, 3.83 µM; with UACC-62 melanoma, 3.98 µM. Besides, the TGI in the assay with ACHN renal is 50.6 µM; with HCT-116 colon it was 16.4 µM; with MDA-MB-435, 29.7 µM; in the assay with NCI-H522 lung, 22.4 µM; with OVCAR-5 ovarian, 25.1 µM; in the assay on SF-539 CNS it was 19 µM. In addition, the TGI with SNB-19 CNS was greater than 100 µM; with SR leukemia, 1.16 µM; with UACC-257 melanoma it was 20.1 µM; in the assay with UACC-62 melanoma it was 14.1 µM.

For the compound `COc1cc(CSc2nc3ccc(C)cc3c(=O)n2Cc2ccccc2)cc(OC)c1OC`, the GI50 was 3.89 µM in the assay with ACHN renal; 2.08 µM in the assay with HCT-116 colon; 0.337 µM in the assay with MDA-MB-435; 0.327 µM in the assay with NCI-H522 lung; 4.82 µM in the assay with OVCAR-5 ovarian; 2.26 µM with SF-539 CNS. For the same compound, the GI50 in the assay on SNB-19 CNS is 5.93 µM; in the assay with SR leukemia, 0.372 µM; in the assay on UACC-257 melanoma, 6.73 µM; with UACC-62 melanoma, 2.03 µM. The TGI with ACHN renal was 55.7 µM; in the assay with HCT-116 colon, 48.9 µM; in the assay with MDA-MB-435, 2.62 µM; in the assay on NCI-H522 lung, 2.53 µM; in the assay with OVCAR-5 ovarian, greater than 100 µM; in the assay on SF-539 CNS, 8.32 µM. Also, the TGI is greater than 100 µM with SNB-19 CNS, 11.1 µM with SR leukemia, greater than 100 µM in the assay with UACC-257 melanoma and 35.7 µM with UACC-62 melanoma.

With `C#C[C@]1(O)CC[C@H]2[C@@H]3CC=C4c5sc(N=C(N)N)nc5CC[C@]4(C)[C@H]3CC[C@@]21C`, the GI50 was 0.971 µM in the assay on ACHN renal; 0.989 µM with HCT-116 colon; 0.7 µM in the assay with MDA-MB-435; 1.63 µM in the assay on NCI-H522 lung; 1.33 µM with OVCAR-5 ovarian; 0.233 µM in the assay with SF-539 CNS. The GI50 with SNB-19 CNS is 1.11 µM; in the assay with SR leukemia, 0.348 µM; in the assay on UACC-257 melanoma it was 0.369 µM; in the assay on UACC-62 melanoma, 0.248 µM. Besides, the TGI with ACHN renal is 2.21 µM; with HCT-116 colon it was 2.29 µM; in the assay on MDA-MB-435, 2.01 µM; in the assay on NCI-H522 lung it was 3.67 µM; in the assay on OVCAR-5 ovarian it was 2.65 µM; with SF-539 CNS it was 1.12 µM. The TGI in the assay on SNB-19 CNS is 2.41 µM; with SR leukemia, 1.98 µM; in the assay with UACC-257 melanoma, 1.4 µM; in the assay with UACC-62 melanoma, 0.657 µM.

Consider `CC(C)=CCc1c(O)cc(/C=C/c2cc(O)c3c(c2)C[C@@H]2C(C)(C)[C@H](O)[C@H](O)C[C@@]2(C)O3)cc1O`, for which the GI50 in the assay on ACHN renal is 0.526 µM; in the assay on HCT-116 colon, 0.00519 µM; in the assay with MDA-MB-435, 0.662 µM; in the assay on NCI-H522 lung, 0.363 µM; with OVCAR-5 ovarian, 1.36 µM; in the assay with SF-539 CNS, 0.00532 µM. In addition, the GI50 in the assay with SNB-19 CNS was 1.46 µM; in the assay on SR leukemia, less than 0.001 µM; in the assay on UACC-257 melanoma, 2.62 µM; with UACC-62 melanoma, 0.0462 µM. The TGI in the assay on ACHN renal is greater than 8.74 µM; with HCT-116 colon, greater than 10 µM; with MDA-MB-435, 4.22 µM; in the assay with NCI-H522 lung, 2.86 µM; in the assay with OVCAR-5 ovarian, greater than 7.96 µM; with SF-539 CNS, 2.2 µM. Moreover, the TGI in the assay on SNB-19 CNS is greater than 10 µM; in the assay with SR leukemia, greater than 10 µM; in the assay on UACC-257 melanoma it was greater than 10 µM; in the assay with UACC-62 melanoma it was 0.325 µM.

Consider `CCCCC(=O)N/N=C/c1cc(I)cc(I)c1O`, for which the GI50 in the assay with ACHN renal is 2.4 µM; with HCT-116 colon, 3.63 µM; in the assay on MDA-MB-435, 5.54 µM; in the assay on NCI-H522 lung, 2.91 µM; in the assay with OVCAR-5 ovarian it was 12.6 µM; in the assay with SF-539 CNS, 2.99 µM. Besides, the GI50 with SNB-19 CNS was 3.43 µM; in the assay on SR leukemia it was 1.92 µM; in the assay on UACC-257 melanoma, 2.56 µM; with UACC-62 melanoma, 2.24 µM. Also, the TGI in the assay on ACHN renal was 13.4 µM; in the assay with HCT-116 colon, 21.9 µM; in the assay on MDA-MB-435, 23.9 µM; in the assay on NCI-H522 lung, 17.5 µM; in the assay with OVCAR-5 ovarian it was greater than 100 µM; with SF-539 CNS, 12.8 µM. In addition, the TGI in the assay with SNB-19 CNS stood at 35.6 µM; with SR leukemia, 14.3 µM; in the assay on UACC-257 melanoma it was 10.4 µM; in the assay with UACC-62 melanoma it was 8.33 µM.

With `O=S1(=O)CCN(Cc2ccccn2)CC1`, the TGI in the assay on ACHN renal, in the assay on HCT-116 colon, in the assay on MDA-MB-435, in the assay on NCI-H522 lung, with OVCAR-5 ovarian and in the assay with SF-539 CNS was greater than 100 µM throughout. Also, the TGI with SNB-19 CNS, with SR leukemia, in the assay with UACC-257 melanoma and in the assay with UACC-62 melanoma was greater than 100 µM each time.

With `O=[N+]([O-])c1ccccc1N=Nc1c(O)[nH]c2ccccc12`, the TGI was 23.7 µM in the assay with ACHN renal; greater than 54.2 µM in the assay on HCT-116 colon; greater than 100 µM in the assay on MDA-MB-435; greater than 100 µM with NCI-H522 lung; greater than 100 µM in the assay with OVCAR-5 ovarian; 23.9 µM with SF-539 CNS. Moreover, the TGI with SNB-19 CNS, in the assay on SR leukemia, in the assay on UACC-257 melanoma and in the assay with UACC-62 melanoma was greater than 100 µM in each case.

For `COc1cc(OC)c2c(=O)c(O)c(-c3ccc(OC)c(OC)c3)oc2c1`, the TGI in the assay with ACHN renal is greater than 100 µM; with HCT-116 colon it was greater than 100 µM; in the assay with MDA-MB-435, greater than 31.6 µM; in the assay with NCI-H522 lung, greater than 31.6 µM; with OVCAR-5 ovarian, greater than 100 µM; in the assay on SF-539 CNS, greater than 100 µM. In addition, the TGI was greater than 100 µM with SNB-19 CNS, 19.2 µM in the assay on SR leukemia, greater than 100 µM in the assay with UACC-257 melanoma and greater than 31.6 µM in the assay on UACC-62 melanoma.
